Structures can show the parent of a compound that is named as a salt.
tested on: MTT (mouse pheochromocytoma); assay: IC50 of cell viability (ATP content); details: (24 or 48 h)
How it was run: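 MTT mouse pheochromocytoma cells were seeded into white 1536-well plates at 5 µl per well from a 200,000 cells/ml suspension in DMEM with 5% FBS and 1% horse serum, then cultured overnight at 37°C, 5% CO2. A pintool added 23 nl of library compound in DMSO at 8 concentrations (final 0.5 nM to 46 µM) for 24 or 48 hrs, and CellTiter-Glo ATP luminescence was read after 15 minutes. Signals were scaled so that positive-control wells equalled 100% and DMSO wells 0%. IC50 values were derived by fitting a four-parameter logistic curve.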

| Compound | IC50 of cell viability [µM] |
| --- | --- |
| COc1cc(N)c(Cl)cc1C(=O)NC1CN2CCC1CC2 (configuration not stated) [Zacopride hydrochloride] | > 46 |
| CCOc1ccc(/N=C(\C)Nc2ccc(OCC)cc2)cc1 [Phenacaine hydrochloride] | > 46 |
| CCCCN1CCCC[C@H]1C(=O)Nc1c(C)cccc1C [Levobupivacaine hydrochloride] | > 46 |
| CCCSc1cc(OC)c(CCN)cc1OC | > 46 |
| O.O.O.O.[Na+].[O-]c1ccccc1-c1ccccc1 [2-Phenylphenol sodium salt tetrahydrate technical] | > 46 |
| CN1CCC(OC(=O)C(Oc2ccc(Cl)cc2)Oc2ccc(Cl)cc2)CC1 [Lifibrate] | > 46 |
| FC(F)(F)C(F)(F)C(F)(F)C(F)(F)C(F)(F)F [DODECAFLUOROPENTANE] | > 46 |
| OCC(O)[C@H]1O[C@@H]2O[C@H](C(Cl)(Cl)Cl)O[C@@H]2[C@H]1O (some centres not stated) [CHLORALOSUM] | > 46 |
| C[C@@]12CC[C@@H]3c4ccc(O[S+](=O)([O-])O)cc4CC[C@H]3[C@H]1CCC2=O [Estropipate] | > 46 |
| Cn1c(=O)c2[nH]c(Br)nc2n(C)c1=O [PAMABROM] | > 46 |
| CCN1C[C@]2(COC)[C@H](O)C[C@H](OC)[C@]34C1C([C@H](OC)[C@H]23)[C@]1(OC(C)=O)[C@H]2[C@@H](OC(=O)c3ccccc3)[C@](O)(C[C@H]24)[C@@H](OC)[C@@H]1O [ACONITINE] | > 46 |
| Cc1cc(N)c2cc(NC(=O)Nc3ccc4nc(C)cc(N)c4c3)ccc2n1 [AMINOQUINURIDUM] | > 46 |
| COC1C\C(C[N+](C)(C)C1)=C(/C2=CC=CS2)C3=CC=CS3 (configuration not stated) [TIMEPIDIUM BROMIDE] | > 46 |
| CC1(C)OC2CO[C@]3(CO[S+](N)(=O)[O-])OC(C)(C)OC3C2O1 (some centres not stated) [TOPIRAMATE] | > 46 |
| CNCC(=O)c1ccc(O)c(O)c1 [Adrenone] | > 46 |
| CCN(CC)CCC[C@H](C)Nc1c2ccc(Cl)cc2nc2ccc(OC)cc12.Cl.Cl.O.O [Quinacrine dihydrochloride dihydrate] | > 46 |
| C[N+](C)(CCCCCC[N+](C)(C)C1c2ccccc2-c2ccccc21)C1c2ccccc2-c2ccccc21 [Hexafluorenium dibromide] | > 46 |
| CC(C)NNC(=O)c1ccncc1.O=[S+]([O-])(O)O [IPRONIAZID SULFATE] | > 46 |
| CN(C)CCN(Cc1cccs1)c1ccccn1.Cl [METHAPYRILENE HYDROCHLORIDE] | > 46 |
| CC1(CN2CCC(n3c(=O)[nH]c4ccccc43)CC2)OCc2ccccc2-n2cccc21 (configuration not stated) [ZALDARIDUM] | > 46 |
| CC12CCC(C[N+](C)(CCC[N+](C)(C)C)C1)C2(C)C (configuration not stated) [TRIMETHIDINII METHOSULFAS] | > 46 |
| CN1C(=O)NC(=O)C(C)(C2=CCCCC2)C1=O (configuration not stated) [HEXOBARBITAL] | > 46 |
| C(=C/c1ccccc1)/CN1CCN(C(c2ccccc2)c2ccccc2)CC1 [Cinnarizine] | > 46 |
| C=CCC1(O)CCC2C3CCC4=CC(=O)CCC4=C3C=CC21C (configuration not stated) [Altrenogest] | > 46 |
| COP(=S)(OC)Oc1cc(Cl)c(Cl)cc1Cl [Fenchlorphos] | > 46 |
| CCON=O [SWEET SPIRITS OF NITRE] | > 46 |
| OC(C#CCN1CCCC1)(c1ccccc1)c1ccccc1 [Butinolina] | > 46 |

More lines, now with the values ahead:

| IC50 of cell viability [µM] | Compound |
| --- | --- |
| > 46 | CN(C)CCCSc1ccccc1NC(=O)/C=C/c1ccccc1 [CINANSERIN] |
| > 46 | CN(C)CC[N]1N=NN=C1SC\C2=C(\[N@]3[C@@H](SC2)[C@H](NC(=O)CC4=CSC(=N4)N)C3=O)C(O)=O [Cefotiam hydrochloride] |
| > 46 | CCN(CC)C(=O)Nc1ccc(OC[C@H](O)CNC(C)(C)C)c(C(C)=O)c1 [CELIPROLOL HYDROCHLORIDE] |
| > 46 | Cc1ncc([N+](=O)[O-])n1C[C@H](O)CCl [Ornidazole] |
| > 46 | COc1ccc(C(=O)CCC(=O)O)c2ccccc12 [Menbutone] |
| > 46 | CC1(C)CO[C@@H](CC(=O)O)CN1 |
| > 46 | CC(=O)CCC(=O)[O-] [Calcium Levulinate] |
| > 46 | CC[C@H]1OC(=O)[C@H](C)[C@@H](OC2CC(C)(OC)C(O)C(C)O2)[C@H](C)[C@@H](OC2OC(C)CC(N(C)C)C2O)[C@](C)(O)C[C@@H](C)/C(=N\OCOCCOC)[C@H](C)[C@@H](O)[C@]1(C)O (some centres not stated) [Roxithromycin] |
| > 46 | O=P([O-])(O)C(Sc1ccc(Cl)cc1)P(=O)([O-])O [TILUDRONATE DISODIUM] |
| > 46 | CC[C@]1(C)CC(=O)NC1=O [Ethosuximide] |
| > 46 | CC1=C(/C=C/C(C)=C\C=C\C(C)=C\C=C\C=C(C)\C=C\C=C(C)\C=C\C2=C(C)C[C@@H](O)CC2(C)C)C(C)(C)C[C@H](O)C1 [ZEAXANTHIN] |
| > 46 | N[C@@H](Cc1cc(I)c(O)c(I)c1)C(=O)O [3,5-DIIODO-L-TYROSINE] |
| > 46 | CCN1\C=C(\C(O)=O)C(=O)C2=C1N=C(N3CCNCC3)C(=C2)F [Enoxacin] |
| > 46 | O=C[C@H](O)[C@@H](O)[C@H](O)[C@H](O)CO [D-Glucose] |
| > 46 | CCOC(=O)N1\C=C/N(C)C1=S [Carbimazole] |
| > 46 | N\C1=N\C2=C(N=C[N]2COC(CO)CO)C(=O)N1 [Ganciclovir] |
| > 46 | OC(=O)CC/1=N/N(CC2=CC=C(Br)C=C2F)C(=O)C3=CC=CC=C13 [Statil] |
| > 46 | Nc1ncnc2c1ncn2[C@H]1CC[C@@H](CO)O1 [2',3'-DIDEOXYADENOSINE] |
| > 46 | CCOC(=O)c1ccc(NC(=O)CN2CCCCC2)cc1 [Sulcaine] |
| > 46 | CC(Cc1cccc(C(F)(F)F)c1)NCCOC(=O)c1ccccc1.Cl (configuration not stated) [BENFLUOREX HYDROCHLORIDE] |
| > 46 | O=C(/C=C/c1cccc(F)c1)NC1CC1 [Cinflumide] |
| > 46 | CC(=O)OCC(=O)[C@@]1(O)CCC2C3CCC/4=C/C(=O)/C=C\C4(C)C3C(O)C[C@@]12C (some centres not stated) [PREDNISOLONE ACETATE] |
| > 46 | CCOc1ccc2nc3cc(N)ccc3c(N)c2c1 [ACRINOL] |
| > 46 | C[C@H]1[C@H]\2[C@H](O)[C@H]3[C@H](N(C)C)\C(=C(\C(N)=O)C(=O)[C@]3(O)\C(=C2C(=O)C4=C1C=CC=C4O)O)O [Doxycycline hydrochloride] |
| > 46 | Cc1ccsc1/C=C\C1=NCCCN1C.O=C(O)[C@@H](O)[C@@H](O)C(=O)O [Morantel tartrate] |

— the supplement of paper PMC3974653
